In patent US20110065735A1, “SUBSTITUTED QUINAZOLINES” (Shire LLC, priority 2008, published 2011):
Like-named read-outs stand apart in the source and are kept apart here. One block for each compound: values may come before it.

Legend:
megakaryocytopoiesis [1] = assay: inhibition of TPO-induced megakaryocytopoiesis (differentiation of human CD34+ stem cells into megakaryocytes); assay type: cell-based; conditions: read-out: anti-megakaryocytic IC50
Source text: Such activity may be assessed using a well established model. Assessment of the in vitro anti-megakaryocytic activity—and potentially therefore the platelet lowering capability—of the anagrelide prodrugs can be determined using the model of megakaryocytopoiesis (Cohen-Solal et al., Thromb. Haemost. 1997, 78:37-41 and Cramer et al., Blood, 1997, 89:2336-46). This involves examining the differentiation of human CD34^+ stem cells into megakaryocytes which ultimately give rise to blood platelets.

[2] = system: human phosphodiesterase III (PDE III); assay: PDE III inhibition; assay type: biochemical
[3] = human pharmacokinetics of anagrelide and its metabolite
megakaryocytopoiesis [4] = conditions: cited from earlier work
[5] = in vivo; cited from earlier work
aqueous solubility = assay type: physicochemical
in vivo = conditions: dog
Description: The potential benefit of improved water solubility on the absorption of these open-ring analogues was shown in a comparative bioavailability study in the dog. Using the unsubstituted ethyl-5,6-dichloro-3,4-dihydro-2-(1H)-iminoquinazoline-3-acetate HBr as a model compound, a comparison was made of the systemic availability of anagrelide when given as this compound or as anagrelide itself in equimolar doses (7.7 & 6.1 mg/kg respectively).
The lesser variability was consistent with more efficient absorption. This study illustrated the potential benefits of the open-ring prodrugs to improve absorption.

[6] = target: human phosphodiesterase III (PDE III); conditions: cited from earlier work
[7] = system: erythroid or myelomonocytic differentiation; conditions: stimulated by erythropoietin or granulocyte-macrophage colony-stimulating factor; cited from earlier work
[8] = conversion of prodrug to anagrelide in human plasma (LC/MS-MS); assay type: in vitro ADME; conditions: spiked 100 ng/mL, room temperature, first point of measurement (immediately after mixing)
Description: Such prodrugs are likely to be extremely rapidly and completely cyclised in plasma to the closed ring 3-alkylanagrelide analogues. […] Human plasma was spiked with anagrelide prodrug (final concentration 100 ng/mL). Immediately after mixing, and at 15, 30, 45 and 60 minutes afterward samples were analysed for anagrelide prodrug and anagrelide.

IC50 (megakaryocytopoiesis [1]): ~160 nM
Structure (SMILES): CC1(C)C(=O)NC2=Nc3ccc(Cl)c(Cl)c3CN21 [3,3-dimethyl anagrelide]

potency as PDE III inhibitor relative to anagrelide [2]: over 40 fold | in vivo exposure relative to parent drug [3]: 2-3 fold
Structure (SMILES): O=C1NC2=Nc3ccc(Cl)c(Cl)c3CN2C1O (stereo not drawn) [3-hydroxyanagrelide]
potency in inhibition of megakaryocytopoiesis relative to parent drug (megakaryocytopoiesis [4]): no more potent than the parent drug | typical half-life [5]: 2.5 h

Structure (SMILES): O=C1CN2Cc3c(ccc(Cl)c3Cl)N=C2N1 [Anagrelide, 6,7-dichloro-1,5-dihydroimidazo[2,1-b]-quinazolin-2(3H)-one]
IC50 (megakaryocytopoiesis [1]; Homo sapiens): 27 nM | solubility (aqueous solubility; aqueous, pH 7, aqueous buffer, read-out: aqueous solubility): < 10 µg/mL | metabolite-to-drug exposure ratio (in vivo; male): 1.5 | AUC (in vivo; male, AUC for anagrelide, range): 21.6 to 188 ng·h/mL | Cmax (in vivo; male, Cmax for anagrelide, range): 9.5 to 44.3 ng/mL | IC50 (megakaryocytopoiesis [4]; estimated, background statement, read-out: IC50 inhibition of TPO-induced megakaryocytopoiesis): ~26 nM | IC50 [6]: ~29 nM | effect on erythroid or myelomonocytic differentiation [7]: does not affect | first pass effect [5]: > 50% | typical half-life [5]: 1.5 h

Structure (SMILES): Br.CCOC(=O)CN1Cc2c(ccc(Cl)c2Cl)NC1=N [ethyl-5,6-dichloro-3,4-dihydro-2-(1H)-iminoquinazoline-3-acetate HBr]
solubility (aqueous solubility; distilled water): ~5500 µg/mL | prodrug remaining in human plasma [8]: no prodrug could be found | metabolite-to-drug exposure ratio (in vivo): 0.9 | fold higher Cmax for anagrelide than after anagrelide itself (in vivo; 6.1 mg/kg): approximately 17 fold | mean fold higher AUC for anagrelide than after anagrelide itself (in vivo; 6.1 mg/kg): 16 fold

Structure (SMILES): Cc1[nH]c(=O)c(C#N)cc1-c1ccncc1 [milrinone]
IC50 [6]: 170 to 350 nM
